Test results published in patent US11780893B2, “Kv1.3 blockers” (Zealand Pharma A/S, priority 2019, dated 2023).
Bridge positions count the residues as written; N and C are the ends. Square brackets hold non-standard residues; d marks the D form. Peptide text beside a SMILES is read from it. Nle = CCCC[C@H](N)C(=O)O

Tests used:
[1] = target: T1, human Kv1.3 voltage-gated K+ channel (Homo sapiens, UniProt P22001); assay: cell-based; conditions: inhibition of thallium flux, CHO-DUKX cells with human Kv1.3; read-out: IC50
T1 construct: host or cells: CHO-DUKX

Kv1.1 = target: T2, Kv1.1 (Homo sapiens, UniProt Q09470); assay: cell-based; conditions: for IC50: CHO cells, whole-cell patch clamp, read-out: Potency IC50 (nM) Kv1.1; for Selectivity Kv1.1/Kv1.3: ratio IC50[Kv1.1]/IC50[Kv1.3]
T2 construct: expressed in transfected cells; host or cells: Chinese Hamster Ovary (CHO)

Kv1.2 = target: T3, Kv1.2 (Homo sapiens, UniProt P16389); assay: cell-based; conditions: CHO cells, whole-cell patch clamp; read-out: Potency IC50 (nM) Kv1.2
T3 construct: expressed in transfected cells; host or cells: Chinese Hamster Ovary (CHO)

Kv1.3 = target: T4, Kv1.3 (Homo sapiens, UniProt P22001); assay: cell-based; conditions: CHO cells, whole-cell patch clamp; read-out: Potency IC50 (nM) Kv1.3
T4 construct: expressed in transfected cells; host or cells: Chinese Hamster Ovary (CHO)

Kv1.6 = target: T5, Kv1.6 (Homo sapiens, UniProt P17658); assay: cell-based; conditions: for IC50: CHO cells, whole-cell patch clamp, read-out: Potency IC50 (nM) Kv1.6; for Selectivity Kv1.6/Kv1.3: ratio IC50[Kv1.6]/IC50[Kv1.3]
T5 construct: expressed in transfected cells; host or cells: Chinese Hamster Ovary (CHO)

Rat whole blood = Rat whole blood (Rattus norvegicus, UniProt P15384)
Sequence of Rat whole blood (P15384 whole entry): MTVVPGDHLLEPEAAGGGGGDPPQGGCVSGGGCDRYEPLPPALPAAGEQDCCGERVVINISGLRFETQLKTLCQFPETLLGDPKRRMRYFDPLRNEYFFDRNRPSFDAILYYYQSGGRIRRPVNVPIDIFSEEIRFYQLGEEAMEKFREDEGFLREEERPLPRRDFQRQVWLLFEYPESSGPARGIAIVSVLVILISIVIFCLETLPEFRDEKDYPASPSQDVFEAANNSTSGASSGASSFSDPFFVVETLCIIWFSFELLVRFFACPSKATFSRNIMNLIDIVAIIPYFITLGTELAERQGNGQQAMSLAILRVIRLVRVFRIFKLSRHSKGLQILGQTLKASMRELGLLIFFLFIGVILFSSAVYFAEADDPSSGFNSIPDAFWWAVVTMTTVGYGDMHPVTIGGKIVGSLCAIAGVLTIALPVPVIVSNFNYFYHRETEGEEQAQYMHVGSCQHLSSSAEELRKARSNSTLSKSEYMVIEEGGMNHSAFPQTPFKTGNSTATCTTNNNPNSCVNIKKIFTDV

T5 sequence (P17658 whole entry): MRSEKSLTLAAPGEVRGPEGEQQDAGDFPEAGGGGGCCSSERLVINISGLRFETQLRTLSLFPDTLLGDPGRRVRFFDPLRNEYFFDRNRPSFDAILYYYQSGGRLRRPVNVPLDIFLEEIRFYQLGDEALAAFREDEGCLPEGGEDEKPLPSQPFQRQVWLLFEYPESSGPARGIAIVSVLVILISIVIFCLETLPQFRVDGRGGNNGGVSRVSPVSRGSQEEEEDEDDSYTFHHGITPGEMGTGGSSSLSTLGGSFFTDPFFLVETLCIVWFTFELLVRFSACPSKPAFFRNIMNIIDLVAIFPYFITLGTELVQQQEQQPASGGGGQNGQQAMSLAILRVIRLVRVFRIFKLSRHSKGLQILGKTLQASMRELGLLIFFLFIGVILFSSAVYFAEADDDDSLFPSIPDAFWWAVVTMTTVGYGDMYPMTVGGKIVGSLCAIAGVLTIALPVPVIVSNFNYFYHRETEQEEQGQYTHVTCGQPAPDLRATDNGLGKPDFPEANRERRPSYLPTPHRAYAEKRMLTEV
T2 sequence (Q09470 whole entry): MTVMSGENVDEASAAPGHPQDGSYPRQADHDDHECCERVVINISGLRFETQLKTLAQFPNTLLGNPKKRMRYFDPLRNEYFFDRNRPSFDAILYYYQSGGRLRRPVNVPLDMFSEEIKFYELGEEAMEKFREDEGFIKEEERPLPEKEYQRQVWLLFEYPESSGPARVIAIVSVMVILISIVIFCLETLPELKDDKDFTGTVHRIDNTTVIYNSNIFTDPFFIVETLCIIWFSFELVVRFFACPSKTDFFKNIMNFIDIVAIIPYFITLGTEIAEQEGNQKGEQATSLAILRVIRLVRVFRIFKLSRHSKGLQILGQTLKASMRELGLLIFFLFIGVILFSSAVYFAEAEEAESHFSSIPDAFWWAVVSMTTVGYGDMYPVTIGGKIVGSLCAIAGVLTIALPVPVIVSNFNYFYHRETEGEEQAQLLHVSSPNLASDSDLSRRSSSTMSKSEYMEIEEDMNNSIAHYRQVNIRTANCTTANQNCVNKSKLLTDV
T3 sequence (P16389 whole entry): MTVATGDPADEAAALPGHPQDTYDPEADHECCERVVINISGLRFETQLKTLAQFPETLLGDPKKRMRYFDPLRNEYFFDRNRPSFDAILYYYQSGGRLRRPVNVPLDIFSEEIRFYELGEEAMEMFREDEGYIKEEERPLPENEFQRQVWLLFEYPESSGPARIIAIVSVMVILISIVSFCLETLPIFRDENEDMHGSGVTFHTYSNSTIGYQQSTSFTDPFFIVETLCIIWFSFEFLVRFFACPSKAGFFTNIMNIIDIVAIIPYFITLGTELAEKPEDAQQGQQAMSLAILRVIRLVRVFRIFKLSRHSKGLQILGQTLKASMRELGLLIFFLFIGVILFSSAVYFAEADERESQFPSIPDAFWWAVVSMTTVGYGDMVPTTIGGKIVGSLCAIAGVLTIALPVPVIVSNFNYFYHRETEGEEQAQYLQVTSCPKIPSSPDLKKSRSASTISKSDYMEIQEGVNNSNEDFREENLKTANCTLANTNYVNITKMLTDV
T1 sequence (P22001 whole entry): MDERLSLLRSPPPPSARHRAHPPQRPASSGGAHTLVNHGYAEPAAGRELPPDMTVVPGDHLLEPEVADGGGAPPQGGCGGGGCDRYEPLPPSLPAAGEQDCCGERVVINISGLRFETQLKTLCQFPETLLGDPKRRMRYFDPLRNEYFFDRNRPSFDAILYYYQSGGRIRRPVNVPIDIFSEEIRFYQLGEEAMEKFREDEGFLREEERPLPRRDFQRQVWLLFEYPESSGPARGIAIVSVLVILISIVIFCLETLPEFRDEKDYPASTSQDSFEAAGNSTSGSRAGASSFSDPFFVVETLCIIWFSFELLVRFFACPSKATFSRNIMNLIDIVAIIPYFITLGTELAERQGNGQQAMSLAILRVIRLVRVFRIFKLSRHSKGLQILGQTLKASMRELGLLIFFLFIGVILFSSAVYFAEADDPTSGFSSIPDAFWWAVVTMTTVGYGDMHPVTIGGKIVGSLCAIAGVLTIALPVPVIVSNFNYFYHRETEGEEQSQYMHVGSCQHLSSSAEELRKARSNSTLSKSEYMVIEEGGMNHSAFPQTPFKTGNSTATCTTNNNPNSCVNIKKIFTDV
T4 sequence (P22001 whole entry): as above

Compound	IC50 [1] [nM]	IC50 (Kv1.1) [nM]	Selectivity Kv1.1/Kv1.3 (Kv1.1)	IC50 (Kv1.2) [nM]	IC50 (Kv1.3) [nM]	IC50 (Kv1.6) [nM]	Selectivity Kv1.6/Kv1.3 (Kv1.6)	IC50 (Rat whole blood) [nM]
CC[C@H](C)[C@@H]1NC(=O)[C@H](C)NC(=O)[C@H](CCCCN)NC(=O)[C@H](CC(C)C)NC(=O)[C@@H]2CSSC[C@@H](C(=O)N[C@@H](Cc3ccc(O)cc3)C(=O)N3CCC[C@H]3C(=O)N[C@@H](CCCNC(=N)N)C(N)=O)NC(=O)[C@H](Cc3c[nH]cn3)NC(=O)[C@@H]3CSSC[C@H](NC(=O)[C@H](CCC(=O)O)NC(=O)[C@H](C(C)C)NC(=O)[C@H](CO)NC(=O)[C@H](C)NC(=O)[C@H](CO)NC(=O)[C@@H](NC(=O)[C@H](CCCNC(=N)N)NC(=O)[C@H](CCSC)NC(=O)[C@H](CC(=O)O)NC(=O)[C@H](CCSC)NC(=O)[C@@H](N)CC(N)=O)CSSC[C@H](NC(=O)[C@H](CCCCN)NC(=O)CNC(=O)[C@H](Cc4ccccc4)NC(=O)[C@H]([C@@H](C)CC)NC(=O)[C@H](CO)NC(=O)CNC1=O)C(=O)N[C@@H](CCSC)C(=O)N[C@@H](CC(N)=O)C(=O)N[C@@H](CCCCN)C(=O)N[C@@H](CCCCN)C(=O)N3)C(=O)N[C@@H](CCCCN)C(=O)N[C@@H](CCC(N)=O)C(=O)N[C@@H](CCCCN)C(=O)N2 [Compound 37] (H-NMDMRCSASVECKQKCLKAIGSIFGKCMNKKCHCYPR-NH2; disulfide 6-27, 12-32, 16-34)	0.14	> 3000	>16100	338	0.19	> 3000	>16100	≤ 1
CCCC[C@@H]1NC(=O)[C@@H]2CSSC[C@H](NC(=O)[C@H](CCCCN)NC(=O)[C@H](CO)NC(C)=O)C(=O)N[C@@H](CO)C(=O)N[C@@H](C)C(=O)N[C@@H](CO)C(=O)N[C@@H](C(C)C)C(=O)N[C@@H](CCC(=O)O)C(=O)N[C@H]3CSSC[C@H](NC(=O)[C@H](CCCCN)NC(=O)[C@H](CCCCN)NC(=O)[C@H](CC(N)=O)NC1=O)C(=O)N[C@@H](CCCCN)C(=O)N[C@H](C(=O)N[C@@H](Cc1ccc(O)cc1)C(=O)N1CCC[C@H]1C(=O)N[C@@H](CCCNC(=N)N)C(N)=O)CSSC[C@H](NC(=O)[C@H](CCCCN)NC(=O)[C@H](CCC(N)=O)NC(=O)[C@H](CCCCN)NC3=O)C(=O)N[C@@H](CC(C)C)C(=O)N[C@@H](CCCCN)C(=O)N[C@@H](C)C(=O)N[C@@H]([C@@H](C)CC)C(=O)NCC(=O)N[C@@H](CO)C(=O)N[C@@H]([C@@H](C)CC)C(=O)N[C@@H](Cc1ccccc1)C(=O)NCC(=O)N[C@@H](CCCCN)C(=O)N2 [Compound 107] (Ac-SKCSASVECKQKCLKAIGSIFGKC[Nle]NKKCKCYPR-NH2; disulfide 3-24, 9-29, 13-31)	0.084	> 3000	>3000	196	1	1450		≤ 1
CCCC[C@@H]1NC(=O)[C@@H]2CSSC[C@H](NC(=O)[C@H](CCCNC(=N)N)NC(=O)[C@H](CCCC)NC(=O)[C@H](CC(=O)O)NC(=O)[C@H](CCCC)NC(=O)[C@@H](N)CC(N)=O)C(=O)N[C@@H](CCCNC(=N)N)C(=O)N[C@@H](C)C(=O)N[C@@H](CO)C(=O)N[C@@H](C(C)C)C(=O)N[C@@H](CCC(=O)O)C(=O)N[C@H]3CSSC[C@H](NC(=O)[C@H](CCCCN)NC(=O)[C@H](CCCCN)NC(=O)[C@H](CC(N)=O)NC1=O)C(=O)N[C@@H](CCCCN)C(=O)N[C@H](C(=O)N[C@@H](Cc1ccc(O)cc1)C(=O)N1CCC[C@H]1C(=O)N[C@@H](CCCNC(=N)N)C(N)=O)CSSC[C@H](NC(=O)[C@H](CCCCN)NC(=O)[C@H](CCC(N)=O)NC(=O)[C@H](CCCCN)NC3=O)C(=O)N[C@@H](CC(C)C)C(=O)N[C@@H](CCCCN)C(=O)N[C@@H](C)C(=O)N[C@@H]([C@@H](C)CC)C(=O)NCC(=O)N[C@@H](CO)C(=O)N[C@@H]([C@@H](C)CC)C(=O)N[C@@H](Cc1ccccc1)C(=O)NCC(=O)N[C@@H](CCCCN)C(=O)N2 [Compound 42] (H-N[Nle]D[Nle]RCRASVECKQKCLKAIGSIFGKC[Nle]NKKCKCYPR-NH2; disulfide 6-27, 12-32, 16-34)	0.087	> 3000	>18600	109	0.16	316		≤ 1
CCCC[C@@H]1NC(=O)[C@@H]2CSSC[C@H](NC(=O)[C@H](CCCNC(=N)N)NC(=O)[C@H](CCCC)NC(=O)[C@H](CC(=O)O)NC(=O)[C@H](CCCC)NC(=O)[C@@H](N)CC(N)=O)C(=O)N[C@@H](CO)C(=O)N[C@@H](Cc3c[nH]cn3)C(=O)N[C@@H](CO)C(=O)N[C@@H](C(C)C)C(=O)N[C@@H](CCC(=O)O)C(=O)N[C@H]3CSSC[C@H](NC(=O)[C@H](CCCCN)NC(=O)[C@H](CCCCN)NC(=O)[C@H](CC(N)=O)NC1=O)C(=O)N[C@@H](CCCCN)C(=O)N[C@H](C(=O)N[C@@H](Cc1ccc(O)cc1)C(=O)N1CCC[C@H]1C(=O)N[C@@H](CCCNC(=N)N)C(N)=O)CSSC[C@H](NC(=O)[C@H](CCCCN)NC(=O)[C@H](CCC(N)=O)NC(=O)[C@H](CCCCN)NC3=O)C(=O)N[C@@H](CC(C)C)C(=O)N[C@@H](CCCCN)C(=O)N[C@@H](C)C(=O)N[C@@H]([C@@H](C)CC)C(=O)NCC(=O)N[C@@H](CO)C(=O)N[C@@H]([C@@H](C)CC)C(=O)N[C@@H](Cc1ccccc1)C(=O)NCC(=O)N[C@@H](CCCCN)C(=O)N2 [Compound 47] (H-N[Nle]D[Nle]RCSHSVECKQKCLKAIGSIFGKC[Nle]NKKCKCYPR-NH2; disulfide 6-27, 12-32, 16-34)	0.12	> 3000	>5600	772	0.54	609		≤ 1
CC[C@H](C)[C@@H]1NC(=O)[C@H](C)NC(=O)[C@H](CC(C)C)NC(=O)[C@@H]2CSSC[C@@H](C(=O)N[C@@H](Cc3ccc(O)cc3)C(=O)N3CCC[C@H]3C(=O)N[C@@H](CCCNC(=N)N)C(N)=O)NC(=O)[C@H](CCCCN)NC(=O)[C@@H]3CSSC[C@H](NC(=O)[C@H](CCC(=O)O)NC(=O)[C@H](C(C)C)NC(=O)[C@H](CO)NC(=O)[C@H](C)NC(=O)[C@H](CO)NC(=O)[C@@H](NC(=O)[C@H](CCCNC(=N)N)NC(=O)[C@H](CCSC)NC(=O)[C@H](CC(=O)O)NC(=O)[C@H](CCSC)NC(=O)[C@@H](N)CC(N)=O)CSSC[C@H](NC(=O)[C@H](CCCCN)NC(=O)CNC(=O)[C@H](Cc4ccccc4)NC(=O)[C@H]([C@@H](C)CC)NC(=O)[C@H](CO)NC(=O)CNC1=O)C(=O)N[C@@H](CCSC)C(=O)N[C@@H](CC(N)=O)C(=O)N[C@@H](CCCCN)C(=O)N[C@@H](CCCCN)C(=O)N3)C(=O)N[C@@H](CCCCN)C(=O)N[C@@H](CCC(N)=O)C(=O)N[C@@H](CCCCN)C(=O)N2 [Compound 54] (H-NMDMRCSASVECKQKCLAIGSIFGKCMNKKCKCYPR-NH2; disulfide 6-26, 12-31, 16-33)	0.46	> 3000	>1200	291	2.41	> 3000	>1200	
CC[C@H](C)[C@@H]1NC(=O)[C@H](C)NC(=O)[C@H](CCCCN)NC(=O)[C@H](CC(C)C)NC(=O)[C@@H]2CSSC[C@@H](C(=O)N[C@@H](Cc3ccc(O)cc3)C(=O)N3CCC[C@H]3C(=O)N[C@@H](CCCNC(=N)N)C(=O)O)NC(=O)[C@H](CCCCN)NC(=O)[C@@H]3CSSC[C@H](NC(=O)[C@H](CCC(=O)O)NC(=O)[C@H](C(C)C)NC(=O)[C@H](CO)NC(=O)[C@H](C)NC(=O)[C@H](CO)NC(=O)[C@@H](NC(=O)[C@H](CCCNC(=N)N)NC(=O)[C@H](CCSC)NC(=O)[C@H](CC(=O)O)NC(=O)[C@H](CCSC)NC(=O)[C@@H](N)CCC(N)=O)CSSC[C@H](NC(=O)[C@H](CCCCN)NC(=O)CNC(=O)[C@H](Cc4ccccc4)NC(=O)CNC(=O)[C@H](CCCNC(=N)N)NC(=O)CNC1=O)C(=O)N[C@@H](CCSC)C(=O)N[C@@H](CC(N)=O)C(=O)N[C@@H](CCCCN)C(=O)N[C@@H](CCCCN)C(=O)N3)C(=O)N[C@@H](CCCCN)C(=O)N[C@@H](CCC(N)=O)C(=O)N[C@@H](CCCCN)C(=O)N2 [Compound 2] (H-QMDMRCSASVECKQKCLKAIGRGFGKCMNKKCKCYPR-OH; disulfide 6-27, 12-32, 16-34)	0.25	> 3000	>2000	97	1.5	1810		
CC[C@H](C)[C@@H]1NC(=O)[C@H](C)NC(=O)[C@H](CCCCN)NC(=O)[C@H](CC(C)C)NC(=O)[C@@H]2CSSC[C@@H](C(=O)N[C@@H](Cc3ccc(O)cc3)C(=O)N3CCC[C@H]3C(=O)N[C@@H](CCCNC(=N)N)C(=O)O)NC(=O)[C@H](CCCCN)NC(=O)[C@@H]3CSSC[C@H](NC(=O)[C@H](CCC(=O)O)NC(=O)[C@H](C(C)C)NC(=O)[C@H](CO)NC(=O)[C@H](C)NC(=O)[C@H](CO)NC(=O)[C@@H](NC(=O)[C@H](CCCNC(=N)N)NC(=O)[C@H](CCSC)NC(=O)[C@H](CCC(=O)O)NC(=O)[C@H](CCSC)NC(=O)[C@@H](N)CC(N)=O)CSSC[C@H](NC(=O)[C@H](CCCCN)NC(=O)CNC(=O)[C@H](Cc4ccccc4)NC(=O)[C@H]([C@@H](C)CC)NC(=O)[C@H](CO)NC(=O)CNC1=O)C(=O)N[C@@H](CCSC)C(=O)N[C@@H](CC(N)=O)C(=O)N[C@@H](CCCCN)C(=O)N[C@@H](CCCCN)C(=O)N3)C(=O)N[C@@H](CCCCN)C(=O)N[C@@H](CCC(N)=O)C(=O)N[C@@H](CCCCN)C(=O)N2 [Compound 12] (H-NMEMRCSASVECKQKCLKAIGSIFGKCMNKKCKCYPR-OH; disulfide 6-27, 12-32, 16-34)	0.23	> 3000	>27600	228	0.11	> 3000	>27600	
